Where two headings read alike, the source gives them in different places.
Assays:
Format in all cases: in vivo
Diabrotica balteata = Diabrotica balteata (corn root worm), sprayed maize sprouts; settings: 96 h, read-out: effect in at least one of the two categories (mortality or growth inhibition); for percent effect (mortality or growth inhibition) at 200 ppm: application rate 200 ppm, L2 larvae, 4 days after infestation
Procedure, shortened: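 Read-out at 4 days post-infestation: mortality and growth inhibition relative to untreated samples. Test solutions (200 ppm, from DMSO stocks) were sprayed onto agar-held maize sprouts, which after drying received 6–10 L2 larvae per well.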

Euschistus heros = Euschistus heros (neotropical brown stink bug), sprayed soybean leaves; settings: 120 h, read-out: effect in at least one of the two categories (mortality or growth inhibition); for percent effect (mortality or growth inhibition) at 200 ppm: application rate 200 ppm, N2 nymphs, 5 days after infestation
Protocol: Soybean leaves on agar in 24-well microtiter plates were sprayed with aqueous test solutions prepared from 10'000 ppm DMSO stock solutions. After drying the leaves were infested with N2 nymphs. The samples were assessed for mortality and growth inhibition in comparison to untreated samples 5 days after infestation.
The following compounds gave an effect of at least 80% in at least one of the two categories (mortality or growth inhibition) at an application rate of 200 ppm: […]

Myzus persicae = Myzus persicae (green peach aphid): feeding/contact activity; settings: 144 h
Protocol: (§1) Sunflower leaf discs were placed onto agar in a 24-well microtiter plate and sprayed with aqueous test solutions prepared from 10'000 ppm DMSO stock solutions. After drying, the leaf discs were infested with an aphid population of mixed ages. The samples were assessed for mortality 6 days after infestation.

Plutella xylostella = Plutella xylostella (diamond back moth), artificial diet; settings: 120 h, read-out: effect in at least one of the two categories (mortality or growth inhibition); for percent effect (mortality or growth inhibition) at 200 ppm: application rate 200 ppm, L2 larvae, 5 days after infestation
Procedure, shortened: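 L2 larvae (10-15 per well) fed on compound-treated, dried artificial diet; test solutions diluted in water from 10'000 ppm DMSO stocks. Readout 5 days post-infestation as mortality or growth inhibition versus untreated diet, with at least 80% effect at 200 ppm as threshold.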

Spodoptera littoralis = Spodoptera littoralis (Egyptian cotton leaf worm), sprayed cotton leaf discs; settings: foliar, 72 h, read-out: control (mortality, anti-feeding effect, growth inhibition)
Procedure, shortened: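 Five first-instar larvae placed on dried cotton leaf discs (on agar) previously sprayed with aqueous dilutions of 10'000 ppm DMSO stocks. Scored at 3 days against untreated discs for mortality, feeding inhibition and growth inhibition; any category above untreated counts as control.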

Tetranychus urticae = Tetranychus urticae (two-spotted spider mite): feeding/contact activity; settings: 192 h
Protocol: Bean leaf discs on agar in 24-well microtiter plates were sprayed with aqueous test solutions prepared from 10'000 ppm DMSO stock solutions. After drying the leaf discs were infested with a mite population of mixed ages. The samples were assessed for mortality on mixed population (mobile stages) 8 days after infestation.

Thrips tabaci = Thrips tabaci (onion thrips): feeding/contact activity; settings: 144 h
Protocol: as §1, with “on” for “onto”, “in” for “in a”, “plates” for “plate”, “drying” for “drying,”, “a Thrips” for “an aphid”

[1] = application rate 200 ppm, aphid population of mixed ages, 6 days after infestation, read-out: mortality
[2] = application rate 200 ppm, L1 larvae, 3 days after infestation
[3] = application rate 200 ppm, mixed population (mobile stages), 8 days after infestation, read-out: mortality
[4] = application rate 200 ppm, Thrips population of mixed ages, 6 days after infestation, read-out: mortality

Cc1cc(C2=NO[C@](c3cc(Cl)cc(C(F)(F)F)c3)(C(F)(F)F)C2)ccc1C(=O)N[C@H]1CON(S(=O)(=O)CCl)C1 [Compound A217]
≥ 80%: percent effect (mortality or growth inhibition) at 200 ppm (Diabrotica balteata) | percent effect (mortality or growth inhibition) at 200 ppm (Euschistus heros) | mortality at 200 ppm (Myzus persicae; [1]) | percent effect (mortality or growth inhibition) at 200 ppm (Plutella xylostella) | mortality at 200 ppm (Spodoptera littoralis; [2]) | mortality at 200 ppm (Tetranychus urticae; [3]) | mortality at 200 ppm (Thrips tabaci; [4])

Cc1cc(C2=NO[C@@](c3cc(Cl)c(F)c(Cl)c3)(C(F)(F)F)C2)ccc1C(=O)NC1CON(S(=O)(=O)CCCl)C1 (stereo partly drawn) [Compound A7, N-[2-(2-chloroethylsulfonyl)isoxazolidin-4-yl]-4-[(5S)-5-(3,5-dichloro-4-fluoro-phenyl)-5-(trifluoromethyl)-4H-isoxazol-3-yl]-2-methyl-benzamide]
≥ 80%: percent control (mortality or growth inhibition) at 200 ppm (Diabrotica balteata) | percent control (mortality or growth inhibition) at 200 ppm (Euschistus heros) | mortality at 200 ppm (Myzus persicae) | percent control (mortality or growth inhibition) at 200 ppm (Plutella xylostella) | mortality at 200 ppm (Spodoptera littoralis) | mortality at 200 ppm (Tetranychus urticae) | mortality at 200 ppm (Thrips tabaci)

Cc1cc(C2=NO[C@@](c3cc(Cl)c(Cl)c(Cl)c3)(C(F)(F)F)C2)ccc1C(=O)NC1CON(S(=O)(=O)C2CC2)C1 (stereo partly drawn) [Compound A29, N-(2-cyclopropylsulfonylisoxazolidin-4-yl)-2-methyl-4-[(5S)-5-(3,4,5-trichlorophenyl)-5-(trifluoromethyl)-4H-isoxazol-3-yl]benzamide]
≥ 80%: percent effect (mortality or growth inhibition) at 200 ppm (Diabrotica balteata) | mortality at 200 ppm (Myzus persicae; [1]) | percent effect (mortality or growth inhibition) at 200 ppm (Plutella xylostella) | mortality at 200 ppm (Spodoptera littoralis; [2]) | mortality at 200 ppm (Tetranychus urticae; [3]) | mortality at 200 ppm (Thrips tabaci; [4])

CCN(C1CC1)S(=O)(=O)N1C[C@@H](NC(=O)c2ccc(C3=NO[C@@](c4cc(Cl)cc(Cl)c4)(C(F)(F)F)C3)cc2Cl)CO1 [Compound A157]
≥ 80%: percent effect (mortality or growth inhibition) at 200 ppm (Diabrotica balteata) | percent effect (mortality or growth inhibition) at 200 ppm (Euschistus heros) | mortality at 200 ppm (Myzus persicae; [1]) | percent effect (mortality or growth inhibition) at 200 ppm (Plutella xylostella) | mortality at 200 ppm (Spodoptera littoralis; [2]) | mortality at 200 ppm (Tetranychus urticae; [3]) | mortality at 200 ppm (Thrips tabaci; [4])

CCN(C(C)C)S(=O)(=O)N1CC(NC(=O)c2ccc(C3=NO[C@@](c4cc(Cl)c(Cl)c(Cl)c4)(C(F)(F)F)C3)cc2C)CO1 (some centres unmarked) [Compound A104]
≥ 80%: percent effect (mortality or growth inhibition) at 200 ppm (Diabrotica balteata) | percent effect (mortality or growth inhibition) at 200 ppm (Euschistus heros) | mortality at 200 ppm (Myzus persicae; [1]) | percent effect (mortality or growth inhibition) at 200 ppm (Plutella xylostella) | mortality at 200 ppm (Spodoptera littoralis; [2]) | mortality at 200 ppm (Tetranychus urticae; [3]) | mortality at 200 ppm (Thrips tabaci; [4])

C#CCN(C(=O)OC(C)(C)C)S(=O)(=O)N1C[C@@H](NC(=O)c2ccc(C3=NO[C@@](c4cc(Cl)cc(Cl)c4)(C(F)(F)F)C3)cc2Cl)CO1 [Compound A152]
≥ 80%: percent effect (mortality or growth inhibition) at 200 ppm (Diabrotica balteata) | percent effect (mortality or growth inhibition) at 200 ppm (Euschistus heros) | mortality at 200 ppm (Myzus persicae; [1]) | percent effect (mortality or growth inhibition) at 200 ppm (Plutella xylostella) | mortality at 200 ppm (Spodoptera littoralis; [2]) | mortality at 200 ppm (Tetranychus urticae; [3]) | mortality at 200 ppm (Thrips tabaci; [4])

Cc1cc(C2=NO[C@@](c3cc(Cl)c(F)c(Cl)c3)(C(F)(F)F)C2)ccc1C(=O)N[C@@H]1CON(S(N)(=O)=O)C1 [Compound A208, 4-[(5S)-5-(3,5-dichloro-4-fluorophenyl)-5-(trifluoromethyl)-4H-1,2-oxazol-3-yl]-2-methyl-N-[(4S)-2-sulfamoyl-1,2-oxazolidin-4-yl]benzamide]
≥ 80%: percent effect (mortality or growth inhibition) at 200 ppm (Diabrotica balteata) | mortality at 200 ppm (Myzus persicae; [1]) | percent effect (mortality or growth inhibition) at 200 ppm (Plutella xylostella) | mortality at 200 ppm (Spodoptera littoralis; [2]) | mortality at 200 ppm (Tetranychus urticae; [3]) | mortality at 200 ppm (Thrips tabaci; [4])

Cc1cc(C2=NO[C@@](c3cc(Cl)c(F)c(Cl)c3)(C(F)(F)F)C2)ccc1C(=O)NC1CON(S(=O)(=O)NS(C)(=O)=O)C1 (stereo partly drawn) [Compound A102, 4-[(5S)-5-(3,5-dichloro-4-fluoro-phenyl)-5-(trifluoromethyl)-4H-isoxazol-3-yl]-2-methyl-N-[2-(methylsulfonylsulfamoyl)isoxazolidin-4-yl]benzamide]
≥ 80%: percent effect (mortality or growth inhibition) at 200 ppm (Diabrotica balteata) | percent effect (mortality or growth inhibition) at 200 ppm (Euschistus heros) | percent effect (mortality or growth inhibition) at 200 ppm (Plutella xylostella) | mortality at 200 ppm (Spodoptera littoralis; [2]) | mortality at 200 ppm (Tetranychus urticae; [3]) | mortality at 200 ppm (Thrips tabaci; [4])

Cc1cc(C2=NOC(c3cccc(C(F)(F)F)c3)(C(F)(F)F)C2)ccc1C(=O)NC1CON(S(C)(=O)=O)C1 (centres unmarked) [Compound A60]
≥ 80%: percent effect (mortality or growth inhibition) at 200 ppm (Diabrotica balteata) | percent effect (mortality or growth inhibition) at 200 ppm (Euschistus heros) | percent effect (mortality or growth inhibition) at 200 ppm (Plutella xylostella) | mortality at 200 ppm (Spodoptera littoralis; [2]) | mortality at 200 ppm (Tetranychus urticae; [3]) | mortality at 200 ppm (Thrips tabaci; [4])

Cc1cc(C2=NO[C@](c3cc(Cl)c(F)c(Cl)c3)(C(F)(F)F)C2)ccc1C(=O)N[C@H]1CON(S(=O)(=O)CC#N)C1 [Compound A163]
≥ 80%: percent effect (mortality or growth inhibition) at 200 ppm (Diabrotica balteata) | percent effect (mortality or growth inhibition) at 200 ppm (Euschistus heros) | percent effect (mortality or growth inhibition) at 200 ppm (Plutella xylostella) | mortality at 200 ppm (Spodoptera littoralis; [2]) | mortality at 200 ppm (Tetranychus urticae; [3]) | mortality at 200 ppm (Thrips tabaci; [4])

COC(=O)CS(=O)(=O)N1C[C@H](NC(=O)c2ccc(C3=NO[C@@](c4cc(Cl)c(F)c(Cl)c4)(C(F)(F)F)C3)cc2C)CO1 [Compound A190, methyl 2-[[(4S)-4-[[4-[(5S)-5-(3,5-dichloro-4-fluorophenyl)-5-(trifluoromethyl)-4H-1,2-oxazol-3-yl]-2-methylbenzoyl]amino]-1,2-oxazolidin-2-yl]sulfonyl]acetate]
≥ 80%: percent effect (mortality or growth inhibition) at 200 ppm (Diabrotica balteata) | percent effect (mortality or growth inhibition) at 200 ppm (Euschistus heros) | percent effect (mortality or growth inhibition) at 200 ppm (Plutella xylostella) | mortality at 200 ppm (Spodoptera littoralis; [2]) | mortality at 200 ppm (Tetranychus urticae; [3]) | mortality at 200 ppm (Thrips tabaci; [4])

Cc1cc(C2=NO[C@@](c3cc(Cl)cc(Cl)c3)(C(F)(F)F)C2)ccc1C(=O)N[C@@H]1CON(S(=O)(=O)NCC(F)(F)F)C1 [Compound A194]
≥ 80%: percent effect (mortality or growth inhibition) at 200 ppm (Diabrotica balteata) | percent effect (mortality or growth inhibition) at 200 ppm (Euschistus heros) | percent effect (mortality or growth inhibition) at 200 ppm (Plutella xylostella) | mortality at 200 ppm (Spodoptera littoralis; [2]) | mortality at 200 ppm (Tetranychus urticae; [3]) | mortality at 200 ppm (Thrips tabaci; [4])

CS(=O)(=O)N1CC(NC(=O)c2ccc(C3=NOC(c4cc(Cl)cc(Cl)c4)(C(F)(F)F)C3)cc2Cl)CO1 (centres unmarked) [Compound A49]
≥ 80%: percent effect (mortality or growth inhibition) at 200 ppm (Diabrotica balteata) | percent effect (mortality or growth inhibition) at 200 ppm (Euschistus heros) | percent effect (mortality or growth inhibition) at 200 ppm (Plutella xylostella) | mortality at 200 ppm (Spodoptera littoralis; [2]) | mortality at 200 ppm (Tetranychus urticae; [3]) | mortality at 200 ppm (Thrips tabaci; [4])

Cc1cc(C2=NO[C@@](c3cc(Cl)c(F)c(Cl)c3)(C(F)(F)F)C2)ccc1C(=O)NC1CON(S(=O)(=O)N(C)S(C)(=O)=O)C1 (some centres unmarked) [Compound A92]
≥ 80%: percent effect (mortality or growth inhibition) at 200 ppm (Diabrotica balteata) | percent effect (mortality or growth inhibition) at 200 ppm (Euschistus heros) | percent effect (mortality or growth inhibition) at 200 ppm (Plutella xylostella) | mortality at 200 ppm (Spodoptera littoralis; [2]) | mortality at 200 ppm (Tetranychus urticae; [3]) | mortality at 200 ppm (Thrips tabaci; [4])

Cc1cc(C2=NO[C@](c3cc(Cl)c(F)c(Cl)c3)(C(F)(F)F)C2)ccc1C(=O)N[C@@H]1CON(SC(F)(F)F)C1 [Compound A224, 4-[(5R)-5-(3,5-dichloro-4-fluorophenyl)-5-(trifluoromethyl)-4H-1,2-oxazol-3-yl]-2-methyl-N-[(4S)-2-(trifluoromethylsulfanyl)-1,2-oxazolidin-4-yl]benzamide]
≥ 80%: percent effect (mortality or growth inhibition) at 200 ppm (Diabrotica balteata) | percent effect (mortality or growth inhibition) at 200 ppm (Euschistus heros) | percent effect (mortality or growth inhibition) at 200 ppm (Plutella xylostella) | mortality at 200 ppm (Spodoptera littoralis; [2]) | mortality at 200 ppm (Tetranychus urticae; [3]) | mortality at 200 ppm (Thrips tabaci; [4])

CS(=O)(=O)N1CC(NC(=O)c2ccc(C3=NOC(c4cc(Cl)cc(Cl)c4)(C(F)(F)F)C3)c3ccccc23)CO1 (centres unmarked) [Compound A46]
≥ 80%: percent effect (mortality or growth inhibition) at 200 ppm (Diabrotica balteata) | percent effect (mortality or growth inhibition) at 200 ppm (Euschistus heros) | percent effect (mortality or growth inhibition) at 200 ppm (Plutella xylostella) | mortality at 200 ppm (Spodoptera littoralis; [2]) | mortality at 200 ppm (Tetranychus urticae; [3]) | mortality at 200 ppm (Thrips tabaci; [4])

Source: patent US10588317B2, “Isoxazoline-substituted benzamides and analogues as insecticides” (priority 2015, dated 2020)
